In patent US12486294B2, “Radioisotope labeled compound for imaging or treatment of prostate cancer” (SEOUL NATIONAL UNIVERSITY R&DB FOUNDATION, priority 2019, dated 2025):

Columns and labels:
[1] = test system: PSMA-expressing 22Rv1 tumor; assay: SPECT imaging in 22Rv1 cell-transplanted mice; format: in vivo, BALB/c nude mouse
Procedure: Specifically, 0.1 mL of RPMI1640 culture medium containing 5×10^6 22 Rv1 cells was subcutaneously injected into the right back of a 4-week-old male BALE/c nude mouse. After 2 to 3 weeks, the present inventors confirmed that the tumor tissue had reached an appropriate size and used it in the experiment. For animal injection, [^99mTc]Tc-15 and [^99mTc]Tc-16 were each diluted in saline for injection to a concentration of 10.2 MBq/100 μL. […]

[2] = test system: PSMA-targeted 22Rv1 tumor; assay: In vivo distribution test in cancer transplantation animals; parameters: species or system BALB/c male nude mice
Procedure: Specifically, 0.1 mL of RPMI1640 culture medium containing 5×10^6 22 Rv1 cells was subcutaneously injected into the left flank of a 4-week-old male BALB/c nude mouse. After 2 to 3 weeks, the present inventors confirmed that the tumor tissue had reached an appropriate size and used it in the experiment. For animal injection, [^99mTc]Tc-15 prepared in Example 3 and [^99mTc]Tc-16 prepared in Example 4 were each diluted in saline for injection to a concentration of 0.74 MBq/100 μL. Each of these was injected into the tail vein of the mice transplanted with cancer cells, and after 1 hour and 4 hours, cancer, blood, muscle, heart. Lung, liver, spleen, stomach, small intestine, kidney, bone, and the like were collected and their weight and radioactivity were measured.

[3] = Stability test in human serum; format: in vitro ADME; details: 36.5° C., after 2 hours
Procedure: The stability test in human serum is to test the stability when it comes into contact with human serum after administration to the human body, and the stability in the body is partly tested in vitro.
In order to examine the stability of [^99mTc]Tc-15 according to the present invention in human serum, 3.7 MBq of [^99mTc]Tc-15 (100 μL) prepared in Example 3 was added to 1 mL of human serum, mixed well, and then cultured at 36.5° C. with stirring. After 2 hours, the reaction mixture was analyzed by ITLC.
In order to examine the stability of [^99mTc]Tc-16 according to the present invention in human serum, 3.7 MBq of [^99mTc]Tc-16 (100 μL) prepared in Example 4 was added to 1 mL of human serum, mixed well, and then cultured at 36.5° C. with stirring. After 2 hours, the reaction mixture was analyzed by ITLC.

[4] = molecular target: PSMA (Homo sapiens, UniProt Q04609); details: 22Rv1 cells, 1 hour at 37° C., non-specific binding with 250 μM PMPA, nonlinear regression
Sequence of PSMA (Q04609 whole entry): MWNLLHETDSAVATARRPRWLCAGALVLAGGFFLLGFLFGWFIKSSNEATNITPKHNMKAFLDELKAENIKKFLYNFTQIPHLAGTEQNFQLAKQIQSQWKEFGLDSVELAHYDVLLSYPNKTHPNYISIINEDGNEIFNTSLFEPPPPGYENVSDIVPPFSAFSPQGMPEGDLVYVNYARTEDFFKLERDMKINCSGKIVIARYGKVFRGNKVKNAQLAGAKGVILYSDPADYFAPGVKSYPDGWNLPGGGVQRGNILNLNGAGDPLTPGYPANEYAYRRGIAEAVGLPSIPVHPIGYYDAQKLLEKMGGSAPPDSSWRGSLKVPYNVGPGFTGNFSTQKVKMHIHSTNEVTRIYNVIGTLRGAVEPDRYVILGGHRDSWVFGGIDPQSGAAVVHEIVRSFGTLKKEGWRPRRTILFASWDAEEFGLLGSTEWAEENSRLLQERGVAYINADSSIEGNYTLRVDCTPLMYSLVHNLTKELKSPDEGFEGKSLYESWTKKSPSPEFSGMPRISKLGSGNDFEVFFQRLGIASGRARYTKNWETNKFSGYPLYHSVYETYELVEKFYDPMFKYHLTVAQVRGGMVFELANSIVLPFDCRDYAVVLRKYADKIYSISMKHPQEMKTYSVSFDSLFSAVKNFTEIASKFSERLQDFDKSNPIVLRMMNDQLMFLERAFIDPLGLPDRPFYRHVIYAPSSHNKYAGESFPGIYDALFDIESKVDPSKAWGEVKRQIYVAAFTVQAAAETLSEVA
Procedure: The PSMA-positive prostate cancer cell line 22Rv1 was placed in a 24-well plate at the density of 1×10^5 cells/well, followed by culture in a 37° C., 5% CO2 incubator for 24 hours. […] 0.5 mL of the diluted solution was taken and put into cultured cells and incubated in a 37° C., 5% CO2 incubator for 1 hour. After removing the culture medium, the cells were washed twice with fresh culture medium, 1 mL of 0.5% sodium dodecyl sulfate (SDS) dissolved in phosphate buffered saline was added thereto, gently shaken to dissolve, and then transferred to a 5 mL disposable plastic test tube. The radioactivity of the tube was measured using a gamma counter. […] Specific binding was obtained by subtracting non-specific binding from total binding, and a saturation curve was drawn. […] From these saturation curves, the dissociation constant, Kd, was calculated by nonlinear regression using GraphPad Prism 7 program.

[5] = 1 h Blockade, co-injection of 2-PMPA (100 μg)
[6] = 4 h Blockade, co-injection of 2-PMPA (100 μg)

For `[99Tc+].[C-]#[N+]CCC(=O)NCCCCCC(=O)NCCCCC(NC(=O)N[C@@H](CCC(=O)O)C(=O)O)C(=O)O.[C-]#[N+]CCC(=O)NCCCCCC(=O)NCCCCC(NC(=O)N[C@@H](CCC(=O)O)C(=O)O)C(=O)O.[C-]#[N+]CCC(=O)NCCCCCC(=O)NCCCCC(NC(=O)N[C@@H](CCC(=O)O)C(=O)O)C(=O)O.[C-]#[O+].[C-]#[O+].[C-]#[O+]` (stereo partly shown) [[^99mTc]Tc-15], the “tumor intake in SPECT image with PSMA blocked” value ([1]; MIP-1072 injected to selectively block PSMA) was “tumor intake was not observed”, the “tumor intake in SPECT image” value ([1]; intravenous injection, 1 hour and 3 hours after the injection) was “no clear intake was observed” and the “distribution observed in SPECT image” value ([1]; tail vein injection, 1 hour and 3 hours) was “not only excreted by the kidney but also ingested into the prostate cancer tissue”. The “In vivo distribution, Blood” value ([2]; 1 h) was 0.60 % ID/g, the “In vivo distribution, Bone” value ([2]; 1 h) was 0.34 % ID/g and the “In vivo distribution, Heart” value ([2]; 1 h) was 0.22 % ID/g. For the same compound, the “In vivo distribution, Intestine” value ([2]; 1 h) was 0.78 % ID/g, the “In vivo distribution, Kidney” value ([2]; 1 h) was 59.59 % ID/g and the “In vivo distribution, Liver” value ([2]; 1 h) was 0.94 % ID/g. The “In vivo distribution, Lung” value ([2]; 1 h) was 0.64 % ID/g, the “In vivo distribution, Muscle” value ([2]; 1 h) was 0.17 % ID/g and the “In vivo distribution, Spleen” value ([2]; 1 h) was 0.90 % ID/g. For the same compound, the “In vivo distribution, Stomach” value ([2]; 1 h) was 0.31 % ID/g, the “In vivo distribution, Tumor” value ([2]; 1 h) was 1.48 % ID/g and the Tumor/blood ([2]; 1 h) was 2.5. The Tumor/kidney ([2]; 1 h) was 0.02, the Tumor/liver ([2]; 1 h) was 1.57 and the Tumor/muscle ([2]; 1 h) was 8.5. For the same compound, the “In vivo distribution, Blood” value [2, 5] was 0.52 % ID/g, the “In vivo distribution, Bone” value [2, 5] was 0.26 % ID/g and the “In vivo distribution, Heart” value [2, 5] was 0.16 % ID/g. The “In vivo distribution, Intestine” value [2, 5] was 0.55 % ID/g, the “In vivo distribution, Kidney” value [2, 5] was 4.22 % ID/g and the “In vivo distribution, Liver” value [2, 5] was 0.84 % ID/g. The “In vivo distribution, Lung” value [2, 5] was 0.61 % ID/g, the “In vivo distribution, Muscle” value [2, 5] was 0.11 % ID/g and the “In vivo distribution, Spleen” value [2, 5] was 0.15 % ID/g. The “In vivo distribution, Stomach” value [2, 5] was 0.17 % ID/g, the “In vivo distribution, Tumor” value [2, 5] was 0.38 % ID/g and the Tumor/blood [2, 5] was 0.73. It also gave a Tumor/kidney [2, 5] of 0.09, a Tumor/liver [2, 5] of 0.45 and a Tumor/muscle [2, 5] of 3.5. For the same compound, the “In vivo distribution, Blood” value ([2]; 4 h) was 0.31 % ID/g, the “In vivo distribution, Bone” value ([2]; 4 h) was 0.16 % ID/g and the “In vivo distribution, Heart” value ([2]; 4 h) was 0.12 % ID/g. For the same compound, the “In vivo distribution, Intestine” value ([2]; 4 h) was 0.81 % ID/g, the “In vivo distribution, Kidney” value ([2]; 4 h) was 13.72 % ID/g and the “In vivo distribution, Liver” value ([2]; 4 h) was 0.85 % ID/g. The “In vivo distribution, Lung” value ([2]; 4 h) was 0.30 % ID/g, the “In vivo distribution, Muscle” value ([2]; 4 h) was 0.08 % ID/g and the “In vivo distribution, Spleen” value ([2]; 4 h) was 0.26 % ID/g. For the same compound, the “In vivo distribution, Stomach” value ([2]; 4 h) was 0.15 % ID/g, the “In vivo distribution, Tumor” value ([2]; 4 h) was 0.81 % ID/g and the Tumor/blood ([2]; 4 h) was 2.6. For the same compound, the Tumor/kidney ([2]; 4 h) was 0.06, the Tumor/liver ([2]; 4 h) was 0.96 and the Tumor/muscle ([2]; 4 h) was 10.4. For the same compound, the “In vivo distribution, Blood” value [2, 6] was 0.31 % ID/g, the “In vivo distribution, Bone” value [2, 6] was 0.20 % ID/g and the “In vivo distribution, Heart” value [2, 6] was 0.10 % ID/g. The “In vivo distribution, Intestine” value [2, 6] was 0.97 % ID/g, the “In vivo distribution, Kidney” value [2, 6] was 1.44 % ID/g and the “In vivo distribution, Liver” value [2, 6] was 0.84 % ID/g. The “In vivo distribution, Lung” value [2, 6] was 0.30 % ID/g, the “In vivo distribution, Muscle” value [2, 6] was 0.08 % ID/g and the “In vivo distribution, Spleen” value [2, 6] was 0.16 % ID/g. For the same compound, the “In vivo distribution, Stomach” value [2, 6] was 0.14 % ID/g, the “In vivo distribution, Tumor” value [2, 6] was 0.20 % ID/g and the Tumor/blood [2, 6] was 0.65. For the same compound, the Tumor/kidney [2, 6] was 0.14, the Tumor/liver [2, 6] was 0.24 and the Tumor/muscle [2, 6] was 2.71. For the same compound, the “intake when PSMA was blocked with PMPA” value ([2]; summary of Tables 2 and 3) was “the intake was decreased”, the “tissue with highest intake” value ([2]; summary of Tables 2 and 3) was “the highest intake in the kidney” and the “stability in human serum (ITLC)” value [3] was “most of them were present as [^99mTc]Tc-15 and hardly separated as ^99mTc”. It also gave a Kd [4] of 5.5 nM.
